According to paper PMC8199030, “Salvia officinalis L.: Antitrypanosomal Activity and Active Constituents against Trypanosoma brucei rhodesiense” (Molecules, 2021):
≈ marks a conversion by molar mass, not a printed value. Where “and” joins values, the source holds several entries; their conditions need not be identical. Equal entries are not always repeated. Where two headings read alike, the source gives them in different places.

How the values were obtained:
[1] = tested on: Trypanosoma brucei rhodesiense (Tbr, bloodstream-form trypomastigotes, STIB 900 strain); test: microbe, parasite or virus in culture; details: Trypanosoma brucei, read-out: IC50 Tbr (STIB 900)
Procedure: (§1) Samples with a defined concentration of 2 mg/mL were prepared of each fraction and analyzed by UHPLC/ESI-QqTOF-MS (henceforth abbreviated LC/MS) to determine the analytical fingerprints. After the analysis and dereplication of major peaks (see Figure S1 and Table S1 in Supplementary Material) as well as comparison of the samples’ analytical profiles, 17 representative fractions were selected to be assayed in vitro against Tbr. […] IC50 values for the individual fractions were not determined, in order to save resources and since the % GI data can serve as an approximate substitute in cases where relative activities of similar samples such as the fractions under study are compared.
(§2) Melarsoprol was used as positive control. The cytotoxicity of the compounds was assessed using L6 rat skeletal myoblast cells and podophyllotoxin as a reference drug.
(§3) In vitro assays for the bioactivity against Trypanosoma brucei rhodesiense (Tbr, bloodstream-form trypomastigotes, STIB 900 strain) and cytotoxicity tests against mammalian cells (L6-cell-line from rat skeletal myoblasts) were performed at the Swiss Tropical and Public Health Institute (Swiss TPH, Basel, Switzerland), according to established protocols and as previously described.

in vitro = details: rat
Procedure: as §1, §2, §3

[2] = Cytotoxicity against mammalian L6 cells; format: cell-based; details: rat
[3] = tested on: Trypanosoma brucei rhodesiense (Tbr, bloodstream-form trypomastigotes, STIB 900 strain); details: cited from earlier work
[4] = mean of two independent determinations ± deviation from the mean, read-out: IC50 Cytotox L6
[5] = mean of two independent determinations, read-out: IC50 Cytotox L6

| SMILES | IC50 [1] | selectivity ratio (in vitro) | IC50 [2, 4] | IC50 [2, 5] | activity against Tbr, previously reported [3] | IC50 [2] | IC50 against Tbr, previous study ([3]; previous study) |
| --- | --- | --- | --- | --- | --- | --- | --- |
| CO[C@H]1c2cc(C(C)C)c(O)c(O)c2[C@@]23CCCC(C)(C)[C@@H]2[C@@H]1OC3=O [7-O-Methylrosmanol (5), 7-O-methylrosmanol] | 8.3 µg/mL and 23 µM | 0.8 | 6.6 ± 0.8 µg/mL | 18 µM | – | – | – |
| CC(C)C1=Cc2ccc3c(c2C(=O)C1=O)CCCC3(C)C [Miltirone, miltirone, reference compound] | – | – | – | – | very potent activity | – | – |
| COc1cc2oc(-c3ccc(O)cc3)cc(=O)c2c(O)c1OC [Cirsimaritin (1), 4’,5-dihydroxy-6,7-dimethoxyflavone] | – | 2.8 | – | – | – | 4.6 µg/mL and 15 µM | 3.3 µg/mL (≈ 10.5 µM) |
| C=C[C@](C)(O)CC[C@H]1C(=C)CC[C@H]2C(C)(C)CCC[C@]12C [Manool (9), manool] | – | 2.1 | 5.6 ± 0.5 µg/mL | 19 µM | – | – | – |
| CC(C)c1cc2c(c(O)c1O)[C@@]13CCCC(C)(C)[C@@H]1[C@H](OC3=O)[C@@H]2O [Epirosmanol (2), epirosmanol] | 3.2 µg/mL and 9.3 µM | 1.6 | – | – | – | 5 µg/mL and 15 µM | – |
| COc1c(C(C)C)cc2c(c1O)[C@@]1(C(=O)O)CCCC(C)(C)[C@@H]1CC2 [12-O-Methylcarnosic acid (8), 12-O-methylcarnosic acid] | 15 µg/mL and 44 µM | 1.3 | – | – | – | 20 µg/mL and 56 µM | – |
| COc1cc([C@@H]2c3cc4c(cc3[C@H](O)[C@H]3COC(=O)[C@H]23)OCO4)cc(OC)c1OC [Podophyllotoxin, reference compound] | – | – | 0.009 ± 0.001 µg/mL | 0.022 µM | – | – | – |
| CC(C)c1cc2c(c(O)c1O)[C@@]13CCCC(C)(C)[C@@H]1[C@H](OC3=O)[C@H]2O [Compound 3, rosmanol] | ~8.3 µg/mL (≈ 24 µM) | – | – | – | – | – | – |
